Read-outs that look alike come from different tables or passages of the source.
Tests used:
Format in all cases: in vivo
[1] = tested on: Digitaria sanguinalis (DIGSA); experiment: Biological Example 3 glasshouse assay using various adjuvant systems, post-emergence foliar spray; conditions: 8 g/ha
Experimental: Post-emergence foliar spray application, 200 L/ha, usually one or two replicates for the weeds (depending on application rate), and two replicates for soybean.
Standard warm conditions (tropical), in glasshouse. Specifically, the glasshouse bay conditions are 24° C./18° C. day/night; 16/8 hours light/dark; 65% humidity.
The herbicidal application takes place at the following growth stages for plants which include inter alia one or more of the following plants (usually the herbicidal application takes place on at least the following plants: DIGSA, ELEIN, SETFA, ZEAMX, GLXMA Nikko, and GLXMA TMG133, and often also either BRADC or BRAPP):
Digitaria sanguinalis (DIGSA)—growth stage 12 or 13
Each test compound is applied with one of the following adjuvant systems (all percentages are final concentrations in the aqueous spray mixture):
Adjuvant system 1: 0.5% v/v Adigor™ *, 1.0% v/v AMS (ammonium sulphate) and 12.5% v/v IPA (isopropyl alcohol).
Adjuvant system 1A: 0.5% v/v Adigor™ * and 12.5% v/v IPA (isopropyl alcohol).
CAS Registry no. […] A visual assessment of the % herbicidal damage is made 7 and 14 Days After herbicide Application (DAA) (or, in a minority of cases, 7 and 15 DAA), and the results are recorded as % visual herbicidal damage where 0%=no damage to plants and 100%=plant totally killed. *** Adjuvant system=either Adigor™ or Hexamoll DINCH™ or tris-(2-ethylhexyl) phosphate each at 0.5% v/v, and 12.5% v/v IPA (isopropyl alcohol), and 1.0% v/v AMS (ammonium sulphate); or 0.5% v/v Adigor™ and 12.5% v/v IPA (isopropyl alcohol); all percentages are final concentrations in the aqueous spray mixture. […]
The percentages of herbicidal damage/plant control, at 14 Days After herbicide Application (DAA) (or, in a minority of cases, at 15 DAA), for the Compounds tested and for some of the plants tested, were in the following percentage ranges. […] Phytotoxicity on Glycine max (GLXMA, Soybean) Cultivar “TMG133” Glycine max (GLXMA, soybean) cultivar “TMG133” is Roundup Ready™ glyphosate-tolerant soybean cultivar TMG133, and is typically available from Monsanto in Brazil. […]

[2] = tested on: Abutilon theophrasti (ABUTH); experiment: Biological Example 1A glasshouse assay, post-emergence application; conditions: 312 h, read-out: Percentage phytotoxicity ABUTH
Experimental: (§1) Seeds of a variety of test plant species were sown in standard soil ** in pots. After cultivation for one day (pre-emergence) or after 8 days cultivation (post-emergence) under controlled conditions in a glasshouse (at 24/16° C., day/night; 14 hours light; 65% humidity), the plants were sprayed with an aqueous spray solution derived from the formulation of the technical active ingredient (the test herbicide) in acetone/water (50:50) solution containing 0.5% Tween 20 (polyoxyethylene sorbitan monolaurate, CAS Reg. No. 9005-64-5). The test plants were then grown on under controlled conditions in a glasshouse (at 24/16° C., day/night; 14 hours light; 65% humidity) and watered twice daily. 13 Days after application of the test herbicide, for pre- and post-emergence, the test was evaluated visually for percentage phytotoxicity to each plant (where 100%=total damage to plant; 0%=no damage to plant). Generally, each test herbicide is only tested on 1 plant per plant species for each application rate tested and for each application timing. ** The “standard soil” in Biological Example 1 is usually a “sand” or “sandy loam” type of soil.
(§2) Dicotyledonous weeds: ABUTH=Abutilon theophrasti; AMARE=Amaranthus retroflexus. Grassy monocotyledonous weeds: SETFA=Setaria faberi; ALOMY=Alopecurus myosuroides; ECHCG=Echinochloa crus-galli; ZEAMX=Zea mays (corn, maize, e.g. volunteer corn). For Compound A16, the grassy monocotyledonous weed LOLPE (Lolium perenne) was used in the test insterad of ALOMY.

[3] = tested on: Alopecurus myosuroides (ALOMY); experiment: as above; conditions: 13 days after application
Experimental: as §1, §2

Setaria faberi (SETFA) = experiment: as above; conditions: Setaria faberi, post-emergence, 312 h, read-out: Percentage phytotoxicity SETFA
Experimental: as §1, §2

[4] = tested on: Zea mays (ZEAMX, corn, maize, e.g. volunteer corn); experiment: as above; conditions: Zea mays, post-emergence, 312 h, read-out: Percentage phytotoxicity ZEAMX
Experimental: as §1, §2

[5] = tested on: Amaranthus retroflexus (AMARE); experiment: as above; conditions: 312 h, read-out: Percentage phytotoxicity AMARE
Experimental: as §1, §2

[6] = tested on: Echinochloa crus-galli (ECHCG); experiment: as above; conditions: 312 h, read-out: Percentage phytotoxicity ECHCG
Experimental: as §1, §2

[7] = 30 g/ha, 13 days after application
[8] = 250 g/ha, 13 days after application

C#CCC1CC(=O)C(c2c(F)cc(C#CC)cc2OC)C1=O (centres unmarked) [Compound A8, 2-(2-fluoro-6-methoxy-4-prop-1-ynyl-phenyl)-4-prop-2-ynyl-cyclopentane-1,3-dione]
percentage control of (phytotoxicity on) Digitaria sanguinalis (DIGSA) ([1]; 14 DAA, adjuvant 0.5% v/v Adigor + 12.5% v/v IPA): 65%
pest or weed control at 30 g/ha [2]: 0%
pest or weed control at 250 g/ha [2]: 70%
Percentage phytotoxicity ALOMY ([3]; 30 g/ha): 70%
Percentage phytotoxicity ALOMY ([3]; 250 g/ha): 90%
pest or weed control at 30 g/ha (Setaria faberi (SETFA)): 80%
pest or weed control at 250 g/ha (Setaria faberi (SETFA)): 100%
pest or weed control at 30 g/ha [4]: 100%
pest or weed control at 250 g/ha [4]: 100%
pest or weed control at 30 g/ha [5]: 0%
pest or weed control at 250 g/ha [5]: 0%
pest or weed control at 30 g/ha [6]: 100%
pest or weed control at 250 g/ha [6]: 100%

CC#Cc1cc(F)c(C2C(=O)CC(CCSC)CC2=O)c(OC)c1 (centres unmarked) [Compound A11]
percentage control of Digitaria sanguinalis (DIGSA) ([1]; 14 DAA (A11: 14 or 15 DAA), adjuvant 0.5% v/v Adigor + 1.0% v/v AMS + 12.5% v/v IPA): 0%
pest or weed control at 30 g/ha [2, 7]: 0%
pest or weed control at 250 g/ha [2, 8]: 10%
Percentage phytotoxicity ALOMY ([3]; 30 g/ha): 0%
Percentage phytotoxicity ALOMY ([3]; 250 g/ha): 10%
pest or weed control at 30 g/ha (Setaria faberi (SETFA); [7]): 30%
pest or weed control at 250 g/ha (Setaria faberi (SETFA); [8]): 60%
pest or weed control at 30 g/ha [4, 7]: 20%
pest or weed control at 250 g/ha [4, 8]: 20%
pest or weed control at 30 g/ha [5, 7]: 30%
pest or weed control at 250 g/ha [5, 8]: 50%
pest or weed control at 30 g/ha [6, 7]: 0%
pest or weed control at 250 g/ha [6, 8]: 10%

Reference: patent US10696686B2, “Herbicidally active (alkynyl-phenyl)-substituted cyclic dione compounds and derivatives thereof” (Syngenta Limited, priority 2013, dated 2020)
